Legend:
BT474c model = assay: BT474c tumour xenograft in nude mice, tumour volume by calipers; format: in vivo
Experimental: (§1) Tumour cells were implanted subcutaneously into the flank of nude mice, then a tumour was allowed to grow in each mouse until it reached the desired starting volume for the particular experiment (approximately 0.6 cm^3 for the BT474c experiment, and approximately 0.15 cm^3 for the HCC-1187 experiment). The mice were then randomised into groups—each group destined to receive one of the four treatment regimes described in each of FIGS. 1 and 2. The mice were then dosed as described in FIGS. 1 and 2, where docetaxel was administered intravenously, and Compound (I) (as the free base) was administered orally. Calipers were used to monitor tumour sizes during these experiments, and the results are plotted on the graphs of FIGS. 1 and 2.
(§2) The BT-474 tumour cell line (human mammary carcinoma) was obtained from Dr Jose Baselga (at Laboratorio Recerca Oncologica, Paseo Vall D'Hebron 119-129, Barcelona 08035, Spain). This cell line was subcloned and a certain population referred herein to as BT474c was obtained. The HCC-1187 cell line is available from ATCC (www.atcc.org).

[1] = test system: HCC-1187 breast cancer xenografts; assay: HCC-1187 breast cancer xenografts in nude mice, tumour volume by calipers; format: in vivo; details: for efficacy of combination versus docetaxel monotherapy: AZD5363 300 mg/kg once daily, 4 days on, 3 days off, 3 weekly cycles
Experimental: In these experiments the indicated agent(s) where being administered in 2 weekly dosage cycles, then there was no dosing in the 3rd week (days 15-21 inclusive). The indicated agent(s) were again administered in further weekly dosage cycles from week 4 onwards.
Animals were dosed with compounds over a 3 week period (3 weekly cycles of docetaxel and 3 weekly cycles of AZD5363 300 mg/kg once daily, 4 days on, 3 days off). […] Following the 3 weekly cycles of treatment, animals were not treated with compound, and recovery of tumour growth was monitored.
as §1, §2

NC1(C(=O)N[C@@H](CCO)c2ccc(Cl)cc2)CCN(c2ncnc3[nH]ccc23)CC1 [Compound (I), (S)-4-amino-N-(1-(4-chlorophenyl)-3-hydroxypropyl)-1-(7H-pyrrolo[2,3-d]pyrimidin-4-yl)piperidine-4-carboxamide]
sensitisation to docetaxel (BT474c model; BT474c model, single dose of docetaxel): greatly sensitise | effect at regulating tumour volume, combination compared with either component alone (BT474c model; Compound (I) in combination with docetaxel): more than an additive effect | change in tumour volume (BT474c model; FIG. 1, BT474c model, 16-day period, Compound (I) free base orally in combination with docetaxel intravenously): significant tumour shrinkage | antitumour activity, intermittent versus continuous schedule of Compound (I) ([1]; FIG. 2, HCC-1187 model, 55-day period, in combination with weekly cycles of docetaxel): similarly sustained antitumour activity | efficacy of combination versus docetaxel monotherapy ([1]; FIG. 3, docetaxel administered 24 hours after the final dose of AZD5363): antagonistic | efficacy of combination versus docetaxel monotherapy ([1]; FIG. 3, docetaxel dosed 1 hour (same day) before first administration of AZD5363): greater efficacy than docetaxel monotherapy | efficacy of combination versus docetaxel monotherapy ([1]; FIG. 3, docetaxel dosed 24 hours (day before) before first administration of AZD5363): greater efficacy than docetaxel monotherapy | tumour growth delay after the 3 weekly cycles of treatment ([1]; FIG. 3, docetaxel administered 1 hour before AZD5363, compared with the other schedules investigated): longest tumour growth delay

Source: patent US9402847B2, “Combinations comprising (S)-4-amino-N-(1-(4-chlorophenyl)-3-hydroxypropyl)-1-(7H-pyrrolo[2,3-d]pyrimidin-4-yl)piperidine-4-carboxamide” (AstraZeneca AB, priority 2011, dated 2016)
